The assay addresses Gastrin/cholecystokinin type B receptor (Cavia porcellus). Nature of the assay: Binding activity against Cholecystokinin type B receptor from guinea pig cortex using [125]BH CCK-8s as radioligand.

Turning to `Cc1cccc(NC(=O)NC2N=C(N3CCCCC3)c3ccccc3N(C)C2=O)c1` (stereo unspecified) [1-(1-Methyl-2-oxo-5-piperidin-1-yl-2,3-dihydro-1H-benzo[e][1,4]diazepin-3-yl)-3-m-tolyl-urea], the half-maximal inhibitory concentration (IC50) (as a rule, the point on the concentration scale where inhibition reaches its midpoint) is 5.7 nM. This counts as single-digit nanomolar.
